Data on 17 molecules can be found in US12338243B2, “P2X7 modulators” (JANSSEN PHARMACEUTICA NV, priority 2014, dated 2025).

The target in one assay is T1, rat P2X7 (Rattus norvegicus, UniProt Q64663).
T1 sequence (Q64663 1-595): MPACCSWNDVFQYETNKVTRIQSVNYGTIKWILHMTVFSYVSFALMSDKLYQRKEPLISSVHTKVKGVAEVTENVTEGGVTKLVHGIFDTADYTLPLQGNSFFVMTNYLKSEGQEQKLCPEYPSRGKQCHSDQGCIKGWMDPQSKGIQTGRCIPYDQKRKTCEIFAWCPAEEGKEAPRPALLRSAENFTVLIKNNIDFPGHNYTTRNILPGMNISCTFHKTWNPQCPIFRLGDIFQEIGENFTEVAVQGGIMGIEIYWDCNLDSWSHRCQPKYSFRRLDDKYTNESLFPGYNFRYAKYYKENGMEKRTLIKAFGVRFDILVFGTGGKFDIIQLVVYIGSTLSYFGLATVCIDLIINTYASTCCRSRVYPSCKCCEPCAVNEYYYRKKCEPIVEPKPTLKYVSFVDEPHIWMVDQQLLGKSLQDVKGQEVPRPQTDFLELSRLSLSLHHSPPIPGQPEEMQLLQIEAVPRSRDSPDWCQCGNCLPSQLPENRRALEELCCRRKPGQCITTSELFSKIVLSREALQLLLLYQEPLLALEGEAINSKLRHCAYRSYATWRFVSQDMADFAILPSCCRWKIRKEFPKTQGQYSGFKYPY
As to the kind of experiment: Ca2+ flux (FLIPR) in 1321N1 cells expressing recombinant rat P2X7 channel. The conditions noted are these: FLIPR (rat) IC50 (μM), 250 μM BzATP.

The target of assay [1] is T2, P2X7 (Homo sapiens, UniProt Q99572).
T2 sequence (Q99572 1-595): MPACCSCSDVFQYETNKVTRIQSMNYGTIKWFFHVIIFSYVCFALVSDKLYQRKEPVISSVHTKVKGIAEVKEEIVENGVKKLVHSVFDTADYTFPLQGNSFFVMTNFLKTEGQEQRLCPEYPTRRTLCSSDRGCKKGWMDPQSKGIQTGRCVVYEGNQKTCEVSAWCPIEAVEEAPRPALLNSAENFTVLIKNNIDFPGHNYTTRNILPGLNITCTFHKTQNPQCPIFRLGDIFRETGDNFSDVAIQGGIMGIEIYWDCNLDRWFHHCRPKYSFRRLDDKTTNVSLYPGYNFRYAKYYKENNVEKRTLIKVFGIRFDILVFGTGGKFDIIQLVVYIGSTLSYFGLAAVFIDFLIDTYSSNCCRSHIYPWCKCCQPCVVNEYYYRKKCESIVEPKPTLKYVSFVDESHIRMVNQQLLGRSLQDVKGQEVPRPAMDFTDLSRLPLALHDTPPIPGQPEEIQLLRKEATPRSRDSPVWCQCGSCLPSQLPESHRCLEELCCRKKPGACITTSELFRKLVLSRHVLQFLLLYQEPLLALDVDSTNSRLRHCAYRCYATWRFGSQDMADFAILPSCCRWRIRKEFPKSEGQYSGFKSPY
As to the kind of experiment: Ca2+ flux (FLIPR) in 1321N1 cells expressing recombinant human P2X7 channel. Type of assay: cell-based. On the set-up: expressed in transfected cells; host or cells: 1321N1 cells. Particulars: 250 μM BzATP. On the procedure: P2X7 Antagonism in Recombinant Human P2X7 Cells or Recombinant Rat P2X7 Cells: (a) Ca^2+ Flux and (b) Radioligand Binding
(a) Ca^2+ flux: 1321N1 cells expressing the recombinant human or rat P2X7 channel was cultured in HyQ DME/(HyClone/Dulbecco's Modified Eagle Medium) high glucose supplemented with 10% Fetal Bovine Serum (FBS) and appropriate selection marker. Cells were seeded at a density of 25000 cells/well (96-well clear bottom black walled plates) in 100 μl volume/well. On the day of the experiment, cell plates were washed with assay buffer, containing (in mM): 130 NaCl, 2 KCl, 1 CaCl2), 1 MgCl2, 10 HEPES, 5 glucose; pH 7.40 and 300 mOs. After the wash, cells were loaded with the Calcium-4 dye (Molecular Device) and incubated in the dark for 60 minutes. Test compounds were prepared at 250× the test concentration in neat DMSO. Intermediate 96-well compound plates were prepared by transferring 1.2 μL of the compound into 300 μL of assay buffer. A further 3× dilution occurred when transferring 50 μL/well of the compound plate to 100 μL/well in the cell plate. Cells were incubated with test compounds and dye for 30 minutes. […] The fluorescence change was measured 180 seconds after adding the agonist.

The target of assay [2] is T2, P2X7. As to the kind of experiment: Radioligand binding, human P2X7-1321N1 cell membranes, tritiated A-804598.

In the case of `O=C(c1cccc(C(F)(F)F)c1Cl)N1CCn2c(-c3ccco3)nnc2C1c1ccccc1` (racemic) [Example 79, (±)-(2-chloro-3-(trifluoromethyl)phenyl)(3-(furan-2-yl)-8-phenyl-5,6-dihydro-[1,2,4]triazolo[4,3-a]pyrazin-7(8H)-yl)methanone], the 50% inhibitory concentration (IC50) on rat P2X7 turned out to be 0.0071 µM; on P2X7 [1], 0.0151 µM. The same molecule gave an inhibition constant Ki at P2X7 [2] of 0.1 µM.

Consider `CC(O)c1nnc2n1CCN(C(=O)c1cccc(C(F)(F)F)c1Cl)C2c1ccccc1` (racemic) [Example 80, (±)-(2-chloro-3-(trifluoromethyl)phenyl)(3-(1-hydroxyethyl)-8-phenyl-5,6-dihydro-[1,2,4]triazolo[4,3-a]pyrazin-7(8H)-yl)methanone], for which the half-maximal inhibitory concentration (IC50) was 0.395 µM on rat P2X7 and 0.0563 µM at P2X7 [1]. At P2X7 [2], the Ki is 0.02 µM.

With `Cc1nnc2n1CCN(C(=O)c1cccc(C(F)(F)F)c1Cl)C2c1ccccn1` (racemic) [Example 85, (±)-(2-chloro-3-(trifluoromethyl)phenyl)(3-methyl-8-(pyridin-2-yl)-5,6-dihydro-[1,2,4]triazolo[4,3-a]pyrazin-7(8H)-yl)methanone], the IC50 on rat P2X7 was 1.02 µM; at P2X7 [1], 0.0301 µM. At P2X7 [2], this molecule yielded an inhibition constant Ki of 0.0398 µM.

For the molecule `O=C(c1cccc(Cl)c1Cl)N1CCn2c(nnc2C(F)(F)F)C1c1ccccc1` (racemic) [Example 90, (±)-(2,3-dichlorophenyl)(8-phenyl-3-(trifluoromethyl)-5,6-dihydro-[1,2,4]triazolo[4,3-a]pyrazin-7(8H)-yl)methanone], the half-inhibitory concentration (IC50) on rat P2X7 is 0.964 µM; at P2X7 [1], 0.0119 µM. Moreover, the affinity on P2X7 [2] corresponds to a Ki of 0.02 µM.

For the molecule `Cc1nnc2n1CCN(C(=O)c1cccc(C(F)(F)F)c1Cl)C2c1ccc(F)cc1` (racemic) [Example 101, (±)-(2-chloro-3-(trifluoromethyl)phenyl)(8-(4-fluorophenyl)-3-methyl-5,6-dihydro-[1,2,4]triazolo[4,3-a]pyrazin-7(8H)-yl)methanone], the concentration for half-maximal inhibition (IC50) came to 5.06 µM at rat P2X7 and 0.0278 µM on P2X7 [1]. In addition, the Ki on P2X7 [2] was found to be 0.0316 µM.

For the molecule `O=C(c1cccc(C(F)(F)F)c1Cl)N1CCn2c(nnc2C(F)(F)F)C1c1cccnc1` (racemic) [Example 127, (±)-(2-chloro-3-(trifluoromethyl)phenyl)(8-(pyridin-3-yl)-3-(trifluoromethyl)-5,6-dihydro-[1,2,4]triazolo[4,3-a]pyrazin-7(8H)-yl)methanone], the results for the IC50 on rat P2X7 and at P2X7 [1] were 28.2 µM and 0.255 µM, respectively. Further, the Ki at P2X7 [2] worked out at 0.126 µM.

In the case of `CC1c2nnc(-c3ccccn3)n2CCN1C(=O)c1ccnc(C(F)(F)F)c1Cl` (centres unmarked) [Example 16, (3-chloro-2-(trifluoromethyl)pyridin-4-yl)(8-methyl-3-(pyridin-2-yl)-5,6-dihydro-[1,2,4]triazolo[4,3-a]pyrazin-7(8H)-yl)methanone], the IC50 was 0.0177 µM on rat P2X7 and 0.0195 µM at P2X7 [1]. The Ki at P2X7 [2] worked out at 0.1 µM.

In the case of `CC1c2nnc(-c3ccc(Cl)cc3)n2CCN1C(=O)c1cccc(C(F)(F)F)c1Cl` (centres unmarked) [Example 37, (2-chloro-3-(trifluoromethyl)phenyl)(3-(4-chlorophenyl)-8-methyl-5,6-dihydro-[1,2,4]triazolo[4,3-a]pyrazin-7(8H)-yl)methanone], the IC50 came out at 4.59 µM at rat P2X7 and 0.172 µM at P2X7 [1]. Besides, on P2X7 [2], the Ki is 0.251 µM.

Consider `Cc1nnc2n1CCN(C(=O)c1cccc(C(F)(F)F)c1Cl)[C@@H]2c1ccccc1` [Example 67, (R)-(2-chloro-3-(trifluoromethyl)phenyl)(3-methyl-8-phenyl-5,6-dihydro-[1,2,4]triazolo[4,3-a]pyrazin-7(8H)-yl)methanone], for which the 50% inhibitory concentration (IC50) was found to be 2.05 µM at rat P2X7 and 0.483 µM at P2X7 [1]. For the same molecule, on P2X7 [2], the Ki is 0.316 µM.

Regarding `O=C(c1cccc(C(F)(F)F)c1Cl)N1CCn2c(-c3ccco3)nnc2[C@@H]1c1ccccc1` [Example 84, (S)-(2-chloro-3-(trifluoromethyl)phenyl)(3-(furan-2-yl)-8-phenyl-5,6-dihydro-[1,2,4]triazolo[4,3-a]pyrazin-7(8H)-yl)methanone], the half-inhibitory concentration (IC50) on rat P2X7 worked out at 0.0031 µM; at P2X7 [1] it was 0.0025 µM. The molecule further came in with a Ki at P2X7 [2] of 0.02 µM.

For the molecule `Cc1nnc2n1CCN(C(=O)c1cccc(C(F)(F)F)c1Cl)[C@@H]2c1ccccn1` [Example 91, (R)-(2-chloro-3-(trifluoromethyl)phenyl)(3-methyl-8-(pyridin-2-yl)-5,6-dihydro-[1,2,4]triazolo[4,3-a]pyrazin-7(8H)-yl)methanone], the results for the IC50 at rat P2X7 and on P2X7 [1] were 2.13 µM and 0.0075 µM, respectively. This molecule also showed a Ki on P2X7 [2] of 0.0316 µM.

In the case of `Cc1nnc2n1CCN(C(=O)c1cccc(Cl)c1Cl)[C@H]2c1ccc(F)cc1` [Example 105, (S)-(2,3-dichlorophenyl)(8-(4-fluorophenyl)-3-methyl-5,6-dihydro-[1,2,4]triazolo[4,3-a]pyrazin-7(8H)-yl)methanone], the figures for the IC50 at rat P2X7 and on P2X7 [1] were 9.95 µM and 0.0986 µM, respectively. Also, affinity on P2X7 [2] was put at a Ki of 0.0219 µM.

In the case of `O=C(c1cccc(C(F)(F)F)c1Cl)N1CCn2c(C3CC3)nnc2[C@@H]1c1ccc(F)cc1` [Example 107, (S)-(2-chloro-3-(trifluoromethyl)phenyl)(3-cyclopropyl-8-(4-fluorophenyl)-5,6-dihydro-[1,2,4]triazolo[4,3-a]pyrazin-7(8H)-yl)methanone], the results for the half-maximal inhibitory concentration (IC50) at rat P2X7 and on P2X7 [1] were 0.178 µM and 0.0128 µM, respectively. Besides, the affinity at P2X7 [2] corresponds to a Ki of 0.01 µM.

On to `Cc1nnc2n1CCN(C(=O)c1cccc(Cl)c1Cl)[C@@H]2c1ccccn1` [Example 112, (R)-(2,3-dichlorophenyl)(3-methyl-8-(pyridin-2-yl)-5,6-dihydro-[1,2,4]triazolo[4,3-a]pyrazin-7(8H)-yl)methanone], for which the half-maximal inhibitory concentration (IC50) came out at 2.82 µM at rat P2X7 and 0.134 µM at P2X7 [1]. This molecule also had a Ki on P2X7 [2] of 0.0447 µM.

Consider `Cc1nnc2n1CCN(C(=O)c1cccc(C(F)(F)F)c1Cl)[C@H]2c1ccc(F)cc1` [Example 115, (S)-(2-chloro-3-(trifluoromethyl)phenyl)(8-(4-fluorophenyl)-3-methyl-5,6-dihydro-[1,2,4]triazolo[4,3-a]pyrazin-7(8H)-yl)methanone], for which the 50% inhibitory concentration (IC50) at rat P2X7 came to 0.623 µM; at P2X7 [1] it was 0.008 µM. The molecule further gave an inhibition constant (Ki) on P2X7 [2] of 0.01 µM.

Take `Cc1c(C(=O)N2CCn3c(C)nnc3[C@@H]2c2ccc(F)cc2)cccc1C(F)(F)F` [Example 117, (S)-(8-(4-fluorophenyl)-3-methyl-5,6-dihydro-[1,2,4]triazolo[4,3-a]pyrazin-7(8H)-yl)(2-methyl-3-(trifluoromethyl)phenyl)methanone]: the 50% inhibitory concentration (IC50) on rat P2X7 was determined as 7.03 µM; at P2X7 [1], 0.064 µM. The same molecule displayed a Ki on P2X7 [2] of 0.02 µM.

As to `O=C(c1ccc(F)c(Cl)c1Cl)N1CCn2c(nnc2C(F)(F)F)[C@@H]1c1ccccc1` [Example 125, (S)-(2,3-dichloro-4-fluorophenyl)(8-phenyl-3-(trifluoromethyl)-5,6-dihydro-[1,2,4]triazolo[4,3-a]pyrazin-7(8H)-yl)methanone], the figures for the IC50 on rat P2X7 and at P2X7 [1] were greater than 10 µM and 11.7 µM, respectively.
